Like-named read-outs stand apart in the source and are kept apart here. Where a SMILES comes first, the peptide text is derived from it. The star is where a group is joined. Cbz = O=C(OCc1ccccc1)*

Experiment [1] concerns GH binding protein (GHBP). Nature of the experiment: Release of GH binding protein into the growth medium, Western blotting with Mab5 antibody. Type of experiment: cell-based, rabbit. As to conditions: 1 µM; growth medium after 150 min at 30°C (Fig. 3). Here is the method: Cell lines and plasmids. Chinese hamster lung cells, ts20, bearing a thermolabile ubiquitin-activating enzyme E1, and E36 control cells were stably transfected with a pCB6 construct containing the full length rabbit GHR cDNA sequence. The newly established cell lines were grown at 30°C in MEMα supplemented with 10% FCS, 4.5 g/l glucose, 100 U/ml penicillin, 100 µg/ml streptomycin and 0.45 mg/ml geneticin (van Kerkhof et al., 2002). Sixteen hours before the start of the experiment, 10 mM butyrate was added to increase the expression of the GHR (van Kerkhof et al., 2002).
Cell lysis, immunoprecipitation, and western blotting. […] Cell lysates were subjected to SDS-polyacrylamide gel electrophoresis using a precast ready gel system (BioRad, Veenendaal, The Netherlands) and transferred to polyvinylidenedifluoride (PVDF) paper. The blots were immunostained using the polyclonal GHR antibodies anti-T or anti-B or the monoclonal antibody mAb5 followed by peroxidase conjugated protein A or rabbit anti-mouse IgG (Pierce Chemical Co.) as described previously (van Kerkhof et al. 2002), and detected by enhanced chemiluminescence (Roche Molecular Biochemicals).
• Fig. 1. […] Quantification of receptors at the cell surface. […] The number GHRs were calculated and expressed as a percentage of untreated cells. • Fig. 3. […]
Background: Immunoblotting shows a protein as a band on a membrane.

In the next experiment the test system is GHR. The experiment in a line: Western blotting of GHR species (mature and precursor) in cell lysates after drug treatment. Type of experiment: cell-based, rabbit. The method, then: Cell lines and plasmids. Chinese hamster lung cells, ts20, bearing a thermolabile ubiquitin-activating enzyme E1, and E36 control cells were stably transfected with a pCB6 construct containing the full length rabbit GHR cDNA sequence.
Antibodies and materials. […] Inhibitors were dissolved in dimethylsulfoxide (DMSO).
Cell lysis, immunoprecipitation, and western blotting. Cells (in 6-cm dishes) were lysed on ice in 1.0 mL of lysis buffer containing 1% Triton X-100, 1 mM EDTA in PBS, with 50 mM NaF, 1 mM Na3VO4, 10 µg/ml aprotinin, 10 µg/ml leupeptin, and 1 mM PMSF. Cell lysates were subjected to SDS-polyacrylamide gel electrophoresis using a precast ready gel system (BioRad, Veenendaal, The Netherlands) and transferred to polyvinylidenedifluoride (PVDF) paper.
• Fig. 1. Effect of various drugs on GHR species. Cells were treated for 3 h as follows: lane 1, vehicle; lane 2, MG132 (10 µM); lane 3, Tapi-I (10 µM); lane 4, MG132 (10 µM) and Tapi-I (10 µM); lane 5, cycloheximide (0.1 mM); m, mature; p, precursor GHR. […] Quantification of receptors at the cell surface. […] The number GHRs were calculated and expressed as a percentage of untreated cells. • Fig. 3. Effect of metalloprotease inhibitors on the release of GH binding protein.

Setting [2] is: Chinese hamster lung cells transfected with rabbit GHR, treated for 3 h, MG132 10 µM, Tapi-I 10 µM, cycloheximide 0.1 mM, compared with vehicle control (Fig. 1).

Turning to `CNC(=O)[C@H](Cc1c[nH]c2ccccc12)NC(=O)[C@@H](CC(=O)NO)CC(C)C` [GM6001], the “inhibition of shedding of GHBP” value in experiment [1] is listed as “almost completely inhibited”.
As to `CC(C)C[C@@H](C=O)NC(=O)[C@H](CC(C)C)NC(=O)[C@H](CC(C)C)NC(=O)OCc1ccccc1` [MG132, carbobenzoxy-L-leucyl-L-leucyl-L-leucinal] (Cbz-Leu-Leu-Leu-aldehyde), in the experiment with GHR (setting [2]), the “amount of precursor GHR” value is recorded as “remained constant” and the “steady state amount of mature GHR” value was “decreased”.
Consider `CC(C)C[C@H](CC(=O)NO)C(=O)N[C@@H](Cc1ccc2ccccc2c1)C(=O)N[C@@H](C)C(=O)NCCN` [Tapi-I], for which, in the experiment with GHR (setting [2]), the “amount of precursor GHR” value is “unchanged” and the “steady state amount of mature GHR” value is given as “slight increase”. The “inhibition of shedding of GHBP” value in experiment [1] is “almost completely inhibited”.
In the case of `C[C@@H]1C[C@@H]([C@H](O)CC2CC(=O)NC(=O)C2)C(=O)[C@@H](C)C1` [cycloheximide], in the experiment with GHR, the “amount of precursor GHR” value is “virtually disappeared” and the “steady state amount of mature GHR” value is given as “virtually disappeared”.

These data come from EP1356819A1, “Use of proteasome/ubiquitination inhibitors and/or MMP inhibitors alone or in combination with a growth hormone for treating /preventing catabolic conditions” (Universitair Medisch Centrum Utrecht, priority 2002, dated 2003).
